{
  "source": "BindingDB's records for doi:10.1016/j.bmcl.2009.10.094",
  "about": "(Amgen, 2009)",
  "test": "Antagonist activity at human CRTH2 receptor expressed in CEM cell assessed as inhibition of PGD2-induced cell migration after 3 hrs by transwell migration assay",
  "data": [
    {"compound": "CC(=O)N(c1ccccc1)[C@@H]1C[C@H](C)N(C(=O)c2ccccc2)c2ccccc21", "note": "(racemic) [(+/-)-cis-N-(1-benzoyl-2-methyl-1,2,3,4-tetrahydroquinolin-4-yl)-N-phenylacetamide]", "values": [
      {"measurement": "EC50", "result": 0.011, "unit": "µM"}
    ]}
  ]
}
